Experimental data from patent publication US10195285B2, “AGTR1 aptamer-anticancer drug complex for cancer cell chemotherapy” (KOREA UNIVERSITY RESEARCH AND BUSINESS FOUNDATION, priority 2016, dated 2019).
{SH} = thiol group (3'-OH replaced by SH), used for disulfide linkage to a drug

Assays:
[1] = tested on: AGTR1-positive breast cancer cell line (MCF7-AGTR1); experiment: Apoptosis rate (sub-G1%) by PI DNA content flow cytometry, AGTR1-positive cells; assay type: cell-based, human; conditions: 10 nM, 48 hr
Procedure: (§1) (1) The AGTR1-positive breast cancer cell line (MCF7-AGTR1) and the AGTR1-negative breast cancer cell line (BT474) were treated with a control (DMSO), DM1, Aptamer, and Aptamer-DM1 at a concentration of 10 nM for 48 hr, after which the cells were acquired and fixed with 95% ethanol containing 0.5% Tween-20 for 24 hr and cultured for 30 min with propidium iodide (PI, 50 μg/ml) and RNase (50 μg/ml). Thereafter, the apoptosis rate (sub-G1%) of cancer cells was measured through DNA content analysis using flow cytometry.
(§2) (2) Typically, the cell cycle includes, depending on the amount of DNA in cells, G1 (cell growth phase), S (cell replication phase), and G2/M (cell mitotic phase). […] The results of apoptosis are represented by the percentage of sub-G1 in the cell cycle.

[2] = tested on: AGTR1-negative breast cancer cell line (BT474); experiment: Apoptosis rate (sub-G1%) by PI DNA content flow cytometry, AGTR1-negative cells; assay type: cell-based, human; conditions: 10 nM, 48 hr
Procedure: as §1, §2

[3] = tested on: AGTR1-positive breast cancer MCF7 cell line (MCF7-AGTR1); experiment: p-His3 (mitotic arrest marker) ICC/confocal in co-culture, AGTR1-positive cells; assay type: cell-based, human; conditions: 10 nM, 24 hr; co-culture 1:1 with BT474; HER2-not-expressed cells = MCF7-AGTR1
Procedure: (§3) (1) As produced in Example 1, the AGTR1-positive breast cancer MCF7 cell line (MCF7-AGTR1) and the AGTR1-negative breast cancer BT474 cell line (typically, MCF7 is a HER2-negative breast cancer cell line and BT474 is a HER2-positive breast cancer cell line) were co-cultured at a ratio of 1:1, and HER2 and a mitotic arrest marker, namely phospho-Histone H3 (p-[…]), were stained with ICC, the nuclei of which were stained with DAPI, and were then treated with a control (DMSO), DM1, and Aptamer-DM1 at a concentration of 10 nM for 24 hr. Thereafter, the nuclei (blue), p-[…] (green), and HER2 (red) were imaged using a confocal microscope. The number of cells in which p-[…] was detected was quantified based on whether or not AGTR1 was expressed. During the staining procedure, the MCF7-AGTR1 and BT474 cells cultured on 8-well chamber slides were fixed with 4% paraformaldehyde, washed with PBS, and cultured for 10 min with 0.2% Triton X-100. Thereafter, the cells were cultured overnight at 4° C. with primary antibodies in an antibody dilution buffer and then cultured at room temperature for 2 hr with fluorescence-conjugated secondary antibodies. Thereafter, the cells were mounted on ProLong Gold Antifade Reagent containing DAPI (4',6'-diamidine-2'-phenylindole dihydrochloride).

[4] = tested on: AGTR1-negative breast cancer BT474 cell line; experiment: p-His3 (mitotic arrest marker) ICC/confocal in co-culture, AGTR1-negative cells; assay type: cell-based, human; conditions: 10 nM, 24 hr; co-culture 1:1 with MCF7-AGTR1; HER2-expressed cells = BT474
Procedure: as §3

MCF7-AGTR1 cancer cells = experiment: Tumor volume in breast cancer disease animal model; assay type: in vivo, BALB/c nude mice; conditions: 0.75 mg/kg intraperitoneally three times a week, measured for 3 weeks
Procedure: (1) Starting from the 4th day after MCF7-AGTR1 cancer cells (3×10^6 cells) were inoculated into the fourth mammary fat pads of immunodeficient 6-week-old female BALB/c nude mice, Aptamer (0.75 mg/kg) and Aptamer-DM1 (0.5 mg/kg, 0.75 mg/kg) were intraperitoneally administered three times a week. Then, the tumor volume was measured for 3 weeks. The body weights of mice were measured for 3 weeks. The tumor volume (V) was measured using a caliper and calculated according to V=(length×width^2)/2. In a Terminal deoxynucleotidyl transferase dUTP Nick End Labeling (TUNEL) assay, the tumors were removed from the mice, fixed in 10% neutral buffered formalin, and embedded in paraffin. The 4 μm thick tissue section was mounted on a positively charged glass slide, deparaffinized with xylene, and […] through a graded alcohol series. After antigen retrieval, the above tissue section was boiled in a citric acid buffer (pH 6.0) and immunofluorescence was performed. In situ TUNEL was performed on the above tissue section using a TUNEL kit (Roche Applied Sciences, Penzberg, GER), and the images thereof were obtained using a confocal scanning microscope.

[5] = tested on: AGTR1-overexpressed SK-BR-3; experiment: Confocal imaging of Cy3-coupled aptamers binding to / internalizing in AGTR1-positive cells; assay type: cell-based, human; conditions: 500 nM Cy3-coupled aptamer, 10^7 cells, room temperature; compared among SEQ ID NOS:1 to 6
Procedure: 1) 100 μl (10^7 cells) of target cells, namely AGTR1-overexpressed SK-BR-3, and 100 μl of 500 nM aptamer were reacted at room temperature and imaged using a confocal microscope. The aptamers have respective base sequences of SEQ ID NOS:1 to 6, the end of each of which is coupled with a fluorescence dye Cy3.

Compound | apoptosis rate (sub-G1%) (FIG. 6) [1] | apoptosis rate (sub-G1%) (FIG. 6) [2] | expression of p-His3 (confocal, FIG. 4) [3] | expression of p-His3 (confocal, FIG. 4) [4] | growth of tumors (tumor volume, FIG. 7) (MCF7-AGTR1 cancer cells) | internalization / fluorescence intensity (confocal, FIG. 3) [5]
COc1cc2cc(c1Cl)N(C)C(=O)C[C@H](OC(=O)[C@H](C)N(C)C(C)=O)[C@]1(C)O[C@H]1[C@H](C)[C@@H]1C[C@@](O)(NC(=O)O1)[C@H](OC)/C=C/C=C(\C)C2 [DM1, maytansine] | relatively high | relatively high | observed regardless of whether HER2 was expressed or not | observed regardless of whether HER2 was expressed or not | – | –
Aptamer: DNA aptamer 5'-AAGTCGTCTTTGCCAAATACCGGTCTGTCGGTGGGTATTG-3' (SEQ ID NO:4) with thiol group introduced at the 3' terminus (DNA, 3' {SH}, backbone not given here) | remarkably low | remarkably low | – | – | partially inhibited | –
SEQ ID NO:4: ssDNA aptamer AAGTCGTCTTTGCCAAATACCGGTCTGTCGGTGGGTATTG; Cy3-coupled in the confocal test (DNA, backbone not given here; further chemistry not fully specified) | – | – | – | – | – | strongest fluorescence intensity
